Experimental data reported in US20240166627A1, “Terpyridinedione compound or salt thereof, and preparation method and application thereof” (SHENZHEN SALUBRIS PHARMACEUTICALS CO., LTD., priority 2021, published 2024).
Converted amounts (≈) assume the structure as drawn.

Experiments:
[1] = Determination of solubility; type: physicochemical; conditions: aqueous buffer, thermodynamic from solid, 37° C. 1 h
Description: About 0.5 mg of a to-be-tested sample in a centrifuge tube is weighted, an appropriate amount of DMSO is added to completely dissolve the sample, and then methanol is added to make up to 1 ml.
(If there are more pH values to be investigated, the preparation method may be deduced by analogy).
3. The prepared control solution and test solution are simultaneously put into a 37° C. water bath and heated for 1 h, after 1 h, the solutions are taken out and cooled to room temperature, and then the solutions are filtered with a 0.22 μm filter membrane for sample injection.
4. The concentration of the sample in the test solution is calculated according to C=(A*(ms/vs))/AS, and experiment results are shown in Table 2.
Note: ms, vs and AS are the weight, volume and peak area of the sample in the control solution, respectively.
A is the peak area of the test solution.

p38α/MK2 complex = p38α/MK2 complex (Homo sapiens, UniProt P49137+Q16539); assay: p38α/MK2 complex kinase screening experiment (IMAP FP); type: biochemical; conditions: p38α 0.2 nM, MK2 unactive 1 nM, HSP27 substrate 1 μM, ATP 10 μM; read-out: IC50 value that the compound inhibits p38α/MK2 complex
Description: A certain amount of a drug is weighted and prepared into a 10 mM of mother solution by using DMSO; the mother solution is diluted to 100 μM (100× working solution) in two steps; and then, the solution is diluted 3-fold to 33.33 μM, 11.11 μM, 3.70 μM, 1.23 μM, 0.41 μM, 0.14 μM, 0.046 μM, 0.015 μM, and 0.005 μM, successively. DMSO control is also arranged.
Then, a series of diluted DMSO drugs are diluted 25 folds with 1×IMAP Reaction Buffer as a 4× drug working solution.
10 gradient concentrations and 2 duplicated wells are set to each group of compounds; and a DMSO control group and a negative control group (DMSO, no ATP) are additionally set.
• c), after 1 h of incubation at room temperature, 1× Progressive Binding Solution is added to end the enzymatic reaction; after 30 min of incubation, a BMGPHERASTER FSX multifunctional microplate reader is used to detect a Fluorescence Polarization (FP) signal [FP(Ex485/Em520/Em520 nm)].

p38β = p38β (Homo sapiens, UniProt Q15759); assay: p38β kinase screening experiment (ADP-Glo); type: biochemical
Description: A certain amount of the compound is weighed, prepared into a 10/50 mM mother solution with DMSO, diluted 3 folds with DMSO, and diluted to 10 concentration points as a compound working solution.
50 nL of the diluted compound working solution is transferred to each well of a reaction plate (784075, Greiner) with Echo 655, then 2.5 μL (2 ng/μL) of a p38β kinase solution is added; after 10 minutes at room temperature, 2.5 μL of a mixed solution of a kinase substrate (0.4 mg/mL) and ATP (100 μM) is added, for reaction for 60 min at room temperature; and 4 μL of an ADP Glo reagent is added, for incubation for 40 min at room temperature. 8 μL of a kinase detection reagent is added, for incubation for 40 min at room temperature; and finally a light-emitting signal is read on Envision 2104.

Chain of p38β (Q15759 whole entry): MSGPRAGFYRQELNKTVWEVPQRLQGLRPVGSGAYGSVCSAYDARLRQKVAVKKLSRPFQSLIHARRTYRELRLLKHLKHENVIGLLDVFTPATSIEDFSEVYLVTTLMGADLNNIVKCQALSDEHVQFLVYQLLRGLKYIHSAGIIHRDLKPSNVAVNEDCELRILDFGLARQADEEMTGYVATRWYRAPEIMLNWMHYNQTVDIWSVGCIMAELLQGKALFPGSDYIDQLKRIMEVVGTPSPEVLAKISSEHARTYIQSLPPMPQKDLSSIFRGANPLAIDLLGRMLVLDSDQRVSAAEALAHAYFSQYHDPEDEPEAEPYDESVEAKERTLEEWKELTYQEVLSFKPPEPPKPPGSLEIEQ
Chain of p38α/MK2 complex (Q16539 whole entry): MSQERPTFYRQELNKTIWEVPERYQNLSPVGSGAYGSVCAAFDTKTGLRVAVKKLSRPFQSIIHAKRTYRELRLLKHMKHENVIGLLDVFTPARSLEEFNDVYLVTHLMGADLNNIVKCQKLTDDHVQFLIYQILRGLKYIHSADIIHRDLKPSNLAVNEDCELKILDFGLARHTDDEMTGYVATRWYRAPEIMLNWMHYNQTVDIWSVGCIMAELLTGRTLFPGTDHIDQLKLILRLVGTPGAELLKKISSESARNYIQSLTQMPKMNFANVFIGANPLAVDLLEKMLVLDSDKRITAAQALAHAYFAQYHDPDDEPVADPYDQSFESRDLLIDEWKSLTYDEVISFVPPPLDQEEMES
Chain of p38α/MK2 complex (P49137 whole entry): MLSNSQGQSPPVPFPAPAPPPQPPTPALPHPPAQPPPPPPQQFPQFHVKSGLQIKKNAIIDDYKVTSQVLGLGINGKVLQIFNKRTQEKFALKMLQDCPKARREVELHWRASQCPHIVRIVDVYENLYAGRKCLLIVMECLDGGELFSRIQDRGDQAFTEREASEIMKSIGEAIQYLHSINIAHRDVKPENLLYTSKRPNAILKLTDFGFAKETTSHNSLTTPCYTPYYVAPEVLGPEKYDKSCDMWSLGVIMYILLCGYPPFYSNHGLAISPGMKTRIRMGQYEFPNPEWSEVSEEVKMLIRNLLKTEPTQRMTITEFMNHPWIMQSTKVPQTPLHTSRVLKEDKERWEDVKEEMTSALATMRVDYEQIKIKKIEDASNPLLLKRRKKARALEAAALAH

Cc1cnc(-n2cccc(C(C)(C)O)c2=O)cc1-n1c(C)cc(OCc2ncc(F)cc2F)c(Cl)c1=O [Comparative example 1] gave a solubility at 1 h ([1]; pH = 2.0, PBS buffer) of 427 µg/mL (≈ 807 µM), a solubility at 1 h ([1]; pH = 7.4, PBS buffer) of 595 µg/mL (≈ 1130 µM) and an IC50 (p38α/MK2 complex) of 2.6 nM. The IC50 (p38β; ATP 100 μM in the substrate/ATP mix, 60 min, read-out: IC50 value that the compound inhibits p38β) was 4.1 µM and the “Activity multiple relative to p38β/(p38α/MK2 complex)” value (p38β; ratio of p38β IC50 to p38α/MK2 complex IC50 of Embodiment 50) was 1575.
